Assays:
Assay type in all cases: functional; call rule not given here
[1] = Antioxidant activity assessed as DPPH radical scavenging activity incubated for 30 mins by spectrophotometric analysis
Mus musculus [2] = assay: Analgesic activity against acetic acid induced mouse model assessed as number of writhes at 5 mg/kg, po administrated for 30 mins followed by acetic acid addition and measured after 20 mins by abdominal constriction test; conditions: time 50 min
Mus musculus [3] = assay: Analgesic activity against acetic acid induced mouse model assessed as reduction in writhing at 5 mg/kg, po administrated for 30 mins followed by acetic acid addition and measured after 20 mins by abdominal constriction test; set-up: scale not given: the % may be the effect or the level left; conditions: time 50 min
Mus musculus [4] = assay: Analgesic activity against acetic acid induced mouse model assessed as number of writhes at 10 mg/kg, po administrated for 30 mins followed by acetic acid addition and measured after 20 mins by abdominal constriction test; conditions: time 50 min
Mus musculus [5] = assay: Analgesic activity against acetic acid induced mouse model assessed as reduction in writhing at 10 mg/kg, po administrated for 30 mins followed by acetic acid addition and measured after 20 mins by abdominal constriction test; set-up: scale not given: the % may be the effect or the level left; conditions: time 50 min
Homo sapiens = species on record: Homo sapiens; assay: Antiinflammatory activity against human blood incubated for 15 mins by thermostatic luminometric chemiluminescence based oxidative burst assay
[6] = Homo sapiens, Blood, 0.25 h, read-out: IC50

Structure (SMILES)	IC50 [1]	IC50 (Homo sapiens; [6])	other results
C[C@@H](c1ccccc1)N1CSC(=S)N([C@@H](C)c2ccccc2)C1	69.9 µM		Activity (Mus musculus [2]): 35; Activity (Mus musculus [3]): 18.6%
COc1ccc2c(c1)c(CC(=O)O)c(C)n2C(=O)c1ccc(Cl)cc1 [INDOMETHACIN]			Activity (Mus musculus [4]): 22.88; Activity (Mus musculus [5]): 48.83%
CCCN1CN(CC(=O)O)CSC1=S	76.8 µM	23.8 µM	
CCN1CN(CC(=O)O)CSC1=S			IC50 (Homo sapiens): Not Active
C[C@H](c1ccccc1)N1CSC(=S)N([C@H](C)c2ccccc2)C1	65.9 µM		Activity (Mus musculus [2]): 39; Activity (Mus musculus [3]): 9.3%
COc1ccc(CN2CN(CC(=O)O)CSC2=S)cc1OC	81.4 µM	> 100 µM	
CCN1CSC(=S)N(CC)C1		5.1 µM	Activity (Mus musculus [2]): 40.21; Activity (Mus musculus [3]): 6.97%
CCCCN1CN(CC(=O)OCC)CSC1=S		14.4 µM	
CCCCN1CSC(=S)N(CC(=O)O)C1			IC50 (Homo sapiens): Not Active
CCCN1CN(CC(=O)OC)CSC1=S		32.4 µM	
CCCN1CN(CC(=O)OCc2ccccc2)CSC1=S		4.1 µM	
CC(C)Cc1ccc(C(C)C(=O)O)cc1 (stereo unspecified) [IBUPROFEN]		11.2 µM	
CC(c1ccccc1)N1CN(CC(=O)O)CSC1=S (racemic)	67.7 µM	38.5 µM	
CCCCN1CSC(=S)N(C(C)c2ccccc2)C1 (racemic)		> 100 µM	
CCCN1CSC(=S)N(CC(=O)O)C1	93.6 µM	39.7 µM	
CC(C)N1CSC(=S)N(C(C)c2ccccc2)C1 (racemic)	78.9 µM	7.5 µM	Activity (Mus musculus [2]): 41.35; Activity (Mus musculus [3]): 4.65%
O=C(O)CN1CN(CCO)CSC1=S	74.6 µM		IC50 (Homo sapiens): Not Active
CCCN1CSC(=S)N(C(C)c2ccccc2)C1 (racemic)	69.9 µM	16.9 µM	
CC(c1ccccc1)N1CN(CCO)CSC1=S (racemic)	77.5 µM		IC50 (Homo sapiens): Not Active
CCCN1CN(CC(=O)OCC)CSC1=S	87.5 µM	7.1 µM	Activity (Mus musculus [2]): 29.25; Activity (Mus musculus [3]): 32.05%
CC(C)N1CN(CC(=O)O)CSC1=S	87.5 µM		IC50 (Homo sapiens): Not Active
CCCCN1CN(CC(=O)O)CSC1=S			IC50 (Homo sapiens): Not Active
CCN1CSC(=S)N(C(C)c2ccccc2)C1 (racemic)	61.2 µM	> 100 µM	
CCN1CSC(=S)N(CC(=O)O)C1			IC50 (Homo sapiens): Not Active
